Data taken from patent publication US7872036B2, “3-triazolylphenyl sulfide derivative and insecticide, miticide and nematicide containing it as an active ingredient” (Kumiai Chemical Industry Co., Ltd., priority 2004, dated 2011).

How the values were obtained:
[1] = test system: brown planthoppers; assay: Insecticidal test on brown planthoppers; assay type: in vivo, Nilaparvata lugens; settings: active ingredient 500 ppm, germinating rice immersed, 4th-instar larvae, 25° C., 6 days
Method: Wettable powders were prepared in accordance with Formulation Example 2 and diluted with water to an active ingredient concentration of 500 ppm. Germinating rice was immersed in the resulting solutions and put in a plastic cup with a capacity of 60 ml. Ten 4th-instar larvae of brown planthoppers were released to the cup, and the cup was covered and placed in a thermostatic chamber at 25° C. for 6 days, and the survivors were counted for calculation of the insecticidal degree by using Equation 1. The test was carried out by one series system.

[2] = test system: southern root-knot nematodes; assay: Nemastatic test on southern root-knot nematodes; assay type: in vivo, Meloidogyne sp.; settings: diluted solution 20 ppm mixed 1:1 with suspension of second stage larvae, 25° C., 5 days
Method: Compounds of the present invention (5 parts) and Tween 20 (tradename for polyoxyethylene sorbitan monolaurate) (1 part) as a spreader were dissolved n N,N-dimethylformamide (94 parts) to prepare 5% emulsifiable concentrates of the compounds of the present invention. Distilled water was added to the emulsifiable concentrates to prepare diluted solutions having a concentration of the compounds of the present invention of 20 ppm. 0.5 ml of the diluted solutions and 0.5 ml of water suspensions containing 100 second stage larvae of southern root-knot nematodes were mixed, and the mixture were placed in a thermostatic chamber at 25° C. for 5 days, and the survivors were counted for calculation of the nemastatic degree by using Equation 3. The test was carried out by two series system.

**Q.** With CC[S+]([O-])c1nc(N)n(-c2cc([S+]([O-])CC(F)(F)F)c(C)cc2F)n1 (centres unmarked) [Compound 24] as the compound, how does the “Insecticidal degree (%)” value [1] read?
**A.** 90%

**Q.** Which results are given for Cc1cc(F)c(-n2nc(S(C)(=O)=O)nc2N)cc1[S+]([O-])CC(F)(F)F (centres unmarked) [Compound 20]?
**A.** Insecticidal degree (%) [1]: 100%; Nemastatic degree (%) [2]: 92%

**Q.** For CC[S+]([O-])c1nc(N)n(-c2cc(SCC(F)(F)F)c(C)cc2F)n1 (centres unmarked) [Compound 23], which “Insecticidal degree (%)” value [1] is on record?
**A.** 90%

**Q.** And the “Nemastatic degree (%)” value [2]?
**A.** 100%

**Q.** How did the “Insecticidal degree (%)” value [1] turn out when CC(=O)Nc1nc(C(C)(C)C)nn1-c1cc(SCC(F)(F)F)c(C)cc1F [Compound 112] was run?
**A.** 90%

**Q.** How did the “Nemastatic degree (%)” value [2] turn out when Cc1cc(F)c(-n2nc(SCC(F)(F)F)nc2N)cc1SCC(F)(F)F [Compound 130] was run?
**A.** 100%

**Q.** With CCC(=O)Nc1nc(C(F)(F)F)nn1-c1cc(SCC(F)(F)F)c(C)cc1F [Compound 186] as the compound, how does the “Insecticidal degree (%)” value [1] read?
**A.** 100%

**Q.** Cc1cc(F)c(-n2nc(C(F)(F)F)nc2C(N)=O)cc1SCC(F)(F)F [Compound 207] was tested. Which “Nemastatic degree (%)” value [2] did it give?
**A.** 100%

**Q.** With CNc1nc(C(F)(F)F)nn1-c1cc(SCC(F)(F)F)c(C)cc1F [Compound 39] as the compound, how does the “Insecticidal degree (%)” value [1] read?
**A.** 100%

**Q.** What about the “Nemastatic degree (%)” value [2] of the same compound?
**A.** 100%

**Q.** What does the source list for Cc1cc(F)c(-n2nc(SC(F)(F)F)nc2N)cc1SCC(F)(F)F [Compound 31]?
**A.** Insecticidal degree (%) [1]: 100%; Nemastatic degree (%) [2]: 100%

**Q.** Cc1cc(F)c(-n2nc(C(F)(F)C(F)(F)C(F)(F)F)nc2N)cc1SCC(F)(F)F [Compound 174] was tested. Which “Insecticidal degree (%)” value [1] did it give?
**A.** 90%

**Q.** What about the “Nemastatic degree (%)” value [2] of the same compound?
**A.** 100%

**Q.** For CCc1nc(N)n(-c2cc(SCC(F)(F)F)c(C)cc2F)n1 [Compound 49], which “Insecticidal degree (%)” value [1] is on record?
**A.** 100%

**Q.** How did the “Insecticidal degree (%)” value [1] turn out when Cc1cc(F)c(-n2nc([S+](C)[O-])nc2N)cc1SCC(F)(F)F (centres unmarked) [Compound 17] was run?
**A.** 100%

**Q.** What about the “Nemastatic degree (%)” value [2] of the same compound?
**A.** 99%

**Q.** With Cc1nc(N)n(-c2cc(SCC(F)(F)F)c(C)cc2F)n1 [Compound 105] as the compound, how does the “Insecticidal degree (%)” value [1] read?
**A.** 90%

**Q.** What does the source list for Cc1cc(F)c(-n2nc(SC(F)(F)C(F)(F)F)nc2N)cc1SCC(F)(F)F [Compound 176]?
**A.** Insecticidal degree (%) [1]: 90%; Nemastatic degree (%) [2]: 97%

**Q.** Which results are given for C#CCNc1nc(C(F)(F)F)nn1-c1cc(SCC(F)(F)F)c(C)cc1F [Compound 65]?
**A.** Insecticidal degree (%) [1]: 100%; Nemastatic degree (%) [2]: 100%

**Q.** How did the “Insecticidal degree (%)” value [1] turn out when Cc1cc(F)c(-n2nc(C(F)(F)F)nc2NN)cc1[S+]([O-])CC(F)(F)F (centres unmarked) [Compound 163] was run?
**A.** 100%

**Q.** CCC[S+]([O-])c1nc(N)n(-c2cc([S+]([O-])CC(F)(F)F)c(C)cc2F)n1 (centres unmarked) [Compound 137] was tested. Which “Insecticidal degree (%)” value [1] did it give?
**A.** 100%

**Q.** What does the source list for CNc1nc(SC(F)(F)C(F)(F)F)nn1-c1cc(SCC(F)(F)F)c(C)cc1F [Compound 101]?
**A.** Insecticidal degree (%) [1]: 100%; Nemastatic degree (%) [2]: 98%

**Q.** How did the “Insecticidal degree (%)” value [1] turn out when CCNc1nc(C(F)(F)F)nn1-c1cc(SCC(F)(F)F)c(C)cc1F [Compound 59] was run?
**A.** 100%

**Q.** What about the “Nemastatic degree (%)” value [2] of the same compound?
**A.** 100%

**Q.** How did the “Nemastatic degree (%)” value [2] turn out when Cc1cc(F)c(-n2nc(C(C)C)nc2N)cc1SCC(F)(F)F [Compound 110] was run?
**A.** 97%

**Q.** How did the “Insecticidal degree (%)” value [1] turn out when CNC(=O)Nc1nc(C(F)(F)F)nn1-c1cc(SCC(F)(F)F)c(C)cc1F [Compound 168] was run?
**A.** 100%

**Q.** And the “Nemastatic degree (%)” value [2]?
**A.** 100%

**Q.** Cc1cc(F)c(-n2nc(C(C(F)(F)F)C(F)(F)F)nc2N)cc1SCC(F)(F)F [Compound 182] was tested. Which “Nemastatic degree (%)” value [2] did it give?
**A.** 91%

**Q.** CNc1nc(SCC(F)(F)F)nn1-c1cc(SCC(F)(F)F)c(C)cc1F [Compound 160] was tested. Which “Insecticidal degree (%)” value [1] did it give?
**A.** 100%

**Q.** And the “Nemastatic degree (%)” value [2]?
**A.** 100%

**Q.** Which results are given for Cc1cc(F)c(-n2nc(C(F)(F)F)nc2NCC#N)cc1SCC(F)(F)F [Compound 164]?
**A.** Insecticidal degree (%) [1]: 100%; Nemastatic degree (%) [2]: 100%

**Q.** Which “Nemastatic degree (%)” value [2] does the source give for CNc1nc(C(F)(F)F)nn1-c1cc(SCC(F)(F)F)c(C)cc1Cl [Compound 97] here?
**A.** 97%

**Q.** For CCS(=O)(=O)c1nc(N)n(-c2cc([S+]([O-])CC(F)(F)F)c(C)cc2F)n1 (centres unmarked) [Compound 26], which “Insecticidal degree (%)” value [1] is on record?
**A.** 90%

**Q.** Which “Nemastatic degree (%)” value [2] does the source give for Cc1cc(F)c(-n2nc(C(F)(F)F)nc2N)cc1SCC1CC1 [Compound 3] here?
**A.** 100%

**Q.** C#CCNc1nc(SC(F)(F)C(F)(F)F)nn1-c1cc(SCC(F)(F)F)c(C)cc1F [Compound 193] was tested. Which “Insecticidal degree (%)” value [1] did it give?
**A.** 100%

**Q.** What about the “Nemastatic degree (%)” value [2] of the same compound?
**A.** 100%

**Q.** What does the source list for COC(=O)Nc1nc(C(F)(F)F)nn1-c1cc(SCC(F)(F)F)c(C)cc1F [Compound 79]?
**A.** Insecticidal degree (%) [1]: 100%; Nemastatic degree (%) [2]: 94%

**Q.** What does the source list for Cc1ccc(-n2nc(C(F)(F)F)nc2N)cc1SCC(F)(F)F [Compound 124]?
**A.** Insecticidal degree (%) [1]: 100%; Nemastatic degree (%) [2]: 100%

**Q.** For CSc1nc(N)n(-c2cc(SCC(F)(F)F)c(C)cc2F)n1 [Compound 15], which “Nemastatic degree (%)” value [2] is on record?
**A.** 100%

**Q.** C#CC[S+]([O-])c1nc(N)n(-c2cc(SCC(F)(F)F)c(C)cc2F)n1 (centres unmarked) [Compound 150] was tested. Which “Insecticidal degree (%)” value [1] did it give?
**A.** 100%

**Q.** Which “Insecticidal degree (%)” value [1] does the source give for Cc1cc(F)c(-n2nc(C(F)(F)F)nc2NC(=O)C(F)F)cc1[S+]([O-])CC(F)(F)F (racemic) [Compound 200] here?
**A.** 100%

**Q.** With Cc1cc(F)c(-n2nc(SC(F)F)nc2N)cc1SCC(F)(F)F [Compound 27] as the compound, how does the “Insecticidal degree (%)” value [1] read?
**A.** 100%

**Q.** And the “Nemastatic degree (%)” value [2]?
**A.** 100%

**Q.** How did the “Insecticidal degree (%)” value [1] turn out when Cc1cc(F)c(-n2nc(C(F)(F)F)nc2NC(=O)NC(C)C)cc1SCC(F)(F)F [Compound 201] was run?
**A.** 100%

**Q.** With Cc1cc(F)c(-n2nc(C(F)(F)C(F)(F)C(F)(F)F)nc2N)cc1[S+]([O-])CC(F)(F)F (racemic) [Compound 175] as the compound, how does the “Nemastatic degree (%)” value [2] read?
**A.** 97%

**Q.** With Nc1nc(C(F)(F)F)nn1-c1ccc(Cl)c(SCC(F)(F)F)c1 [Compound 126] as the compound, how does the “Nemastatic degree (%)” value [2] read?
**A.** 94%

**Q.** Which “Nemastatic degree (%)” value [2] does the source give for Cc1cc(F)c(-n2nc(SCC#N)nc2N)cc1SCC(F)(F)F [Compound 140] here?
**A.** 99%

**Q.** With CCc1nc(N)n(-c2cc(SCC(F)(F)F)c(C)cc2F)n1 [Compound 116] as the compound, how does the “Nemastatic degree (%)” value [2] read?
**A.** 97%

**Q.** How did the “Insecticidal degree (%)” value [1] turn out when Cc1cc(F)c(-n2nc(C(F)(F)F)nc2NCC#N)cc1[S+]([O-])CC(F)(F)F (centres unmarked) [Compound 165] was run?
**A.** 100%

**Q.** With Cc1cc(F)c(-n2nc(C(F)(F)F)nc2NC(=O)CCl)cc1SCC(F)(F)F [Compound 189] as the compound, how does the “Insecticidal degree (%)” value [1] read?
**A.** 100%

**Q.** How did the “Insecticidal degree (%)” value [1] turn out when C#CCNc1nc(SCC(F)(F)F)nn1-c1cc(SCC(F)(F)F)c(C)cc1F [Compound 184] was run?
**A.** 100%

**Q.** Which “Nemastatic degree (%)” value [2] does the source give for CNc1nc(C(F)(F)F)nn1-c1cc(SCC(F)(F)F)c(C)cc1C [Compound 146] here?
**A.** 98%

**Q.** With Cc1cc(F)c(-n2nc(C(F)(F)F)nc2NC(=O)N(C)C)cc1SCC(F)(F)F [Compound 83] as the compound, how does the “Insecticidal degree (%)” value [1] read?
**A.** 10%

**Q.** For CC(=O)N(C)c1nc(SCC(F)(F)F)nn1-c1cc(SCC(F)(F)F)c(C)cc1F [Compound 158], which “Insecticidal degree (%)” value [1] is on record?
**A.** 90%

**Q.** Which “Insecticidal degree (%)” value [1] does the source give for CCN(CC)c1nc(C(F)(F)F)nn1-c1cc(SCC(F)(F)F)c(C)cc1F [Compound 128] here?
**A.** 100%

**Q.** For Cc1cc(F)c(-n2nc(C(C)(C)C#N)nc2N)cc1SCC(F)(F)F [Compound 103], which “Nemastatic degree (%)” value [2] is on record?
**A.** 94%

**Q.** Which “Nemastatic degree (%)” value [2] does the source give for CCSc1nc(N)n(-c2cc(SCC(F)(F)F)c(C)cc2F)n1 [Compound 21] here?
**A.** 100%

**Q.** How did the “Nemastatic degree (%)” value [2] turn out when Cc1cc(F)c(-n2nc(C(F)(F)F)nc2C(N)=O)cc1[S+]([O-])CC(F)(F)F (racemic) [Compound 208] was run?
**A.** 100%

**Q.** How did the “Nemastatic degree (%)” value [2] turn out when COC(=O)c1nc(C(F)(F)F)nn1-c1cc(SCC(F)(F)F)c(C)cc1F [Compound 203] was run?
**A.** 92%

**Q.** Which “Nemastatic degree (%)” value [2] does the source give for Cc1cc(F)c(-n2nc(C(F)(F)F)nc2C#N)cc1SCC(F)(F)F [Compound 209] here?
**A.** 100%
